These results are taken from patent US5318993A, “Antihyperlipidemic benzoquinones” (Bristol-Myers Squibb Company, priority 1993, dated 1994).

One data set concerns HepG2 cells. The data set is described as follows: Cholesterol synthesis in HepG2 cell culture model (14C-acetate incorporation). The class given is cell-based, human. The settings on record: for activity at 10 µM: Homo sapiens, HepG2 cells, 4 hours incubation, read-out: Cholesterol Biosynthesis. On the procedure:
(§1) The human hepatoma HepG2 cell culture model was employed to compare the intrinsic activities of the synthetic analogues relative to the tocotrienols. HepG2 cells were incubated with the indicated compounds for 4 hours at 10 μM. Cholesterol synthesis was assayed by ^14 C-acetate incorporation over the final hour of incubation, and HMG-CoA reductase suppression (specific activity) was assayed in the microsomal fraction isolated from parallel cultures at the end of the 4 hour incubation.

The nature of data set [1]: In vivo hypocholesterolemic activity in normocholesterolemic chickens (serum lipid parameters). The settings on record: for response vs control in vivo at 4 mg/kg/day: Gallus gallus, po, 672 h. On the procedure:
(§2) Hypocholesterolemic activity was evaluated for the synthetic analogues using γ-tocotrienol as a control in normocholesterolemic chickens. Newborn male chicks (6-10 for each group) were raised on a standard corn-soybean-based control diet for two weeks and then were switched to either control or experimental diets for four weeks. Drug treatment consisted of the addition of test compound to the corn-soybean-based. At the end of the feeding period, all the birds were fasted (about 36 hours) and refed (about 48 hours) to induce cholesterolgenic enzymes prior to sacrifice. The specific activity of HMG-CoA reductase, total serum cholesterol levels, HDL/LDL cholesterol pools, and triglyceride levels (data not shown) were examined (Table II).
(§3) Effects of BMS Compounds on Lipid Parameters in Male
(§4) Orally dosed for 4-weeks at 4 mg/kg/day

For data set [2], the target named is T1, HMG-CoA reductase (Homo sapiens, UniProt P04035).
T1 construct: assayed in the microsomal fraction isolated from parallel cultures; endogenous in cells; host or cells: HepG2 (human hepatoma)
T1 sequence (P04035 1-888): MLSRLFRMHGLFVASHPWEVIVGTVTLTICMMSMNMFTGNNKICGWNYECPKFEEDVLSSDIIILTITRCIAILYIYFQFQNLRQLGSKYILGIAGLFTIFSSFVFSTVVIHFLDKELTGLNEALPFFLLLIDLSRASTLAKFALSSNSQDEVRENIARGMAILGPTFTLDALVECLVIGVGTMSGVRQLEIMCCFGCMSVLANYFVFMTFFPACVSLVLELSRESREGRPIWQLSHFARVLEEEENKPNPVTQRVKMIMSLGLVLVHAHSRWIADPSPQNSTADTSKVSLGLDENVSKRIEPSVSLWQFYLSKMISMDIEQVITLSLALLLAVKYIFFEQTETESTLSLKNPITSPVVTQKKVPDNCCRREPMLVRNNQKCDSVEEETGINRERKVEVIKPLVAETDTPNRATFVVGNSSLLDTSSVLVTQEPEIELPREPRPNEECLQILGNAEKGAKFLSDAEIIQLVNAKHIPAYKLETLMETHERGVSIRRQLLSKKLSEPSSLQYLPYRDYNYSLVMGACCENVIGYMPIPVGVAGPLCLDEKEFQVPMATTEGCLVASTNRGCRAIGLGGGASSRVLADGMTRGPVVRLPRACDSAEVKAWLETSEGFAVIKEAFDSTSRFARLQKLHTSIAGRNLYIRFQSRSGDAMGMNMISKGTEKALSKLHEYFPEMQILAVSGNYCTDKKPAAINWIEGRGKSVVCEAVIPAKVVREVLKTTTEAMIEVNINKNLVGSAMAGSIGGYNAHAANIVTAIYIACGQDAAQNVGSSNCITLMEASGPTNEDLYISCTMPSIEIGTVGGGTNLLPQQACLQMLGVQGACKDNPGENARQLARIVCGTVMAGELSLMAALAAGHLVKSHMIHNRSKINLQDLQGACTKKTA
The data set can be described thus: HMG-CoA reductase suppression (specific activity, microsomal fraction of HepG2 cells). The conditions noted are these: 4 hours incubation, read-out: HMGR Suppression. The class given is cell-based. On the procedure:
as §1

Data set [3] relates to HMG-CoA reductase. The data set is described as follows: HMG-CoA reductase specific activity in normocholesterolemic chickens. The conditions noted are these: male chickens, orally dosed for 4 weeks at 4 mg/kg/day. The data set is classed as in vivo. On the procedure: as §2, §3, §4
The conditions of data set [4]: man, cited from earlier work.
Data set [5] has as its system submitochondrial particles. The conditions noted are these: in words; cited from earlier work.
The test system of a further data set is LDL. The settings on record: in words; cited from earlier work.
In data set [6] the test system is rat liver microsomes and mitochondrial membranes. The conditions noted are these: in words; cited from earlier work.
Setting [7] is: male chickens, orally dosed for 4 weeks at 4 mg/kg/day, read-out: HDL-C.
[8] abbreviates: male chickens, orally dosed for 4 weeks at 4 mg/kg/day, read-out: LDL-C.
[9] abbreviates: male chickens, orally dosed for 4 weeks at 4 mg/kg/day, total serum cholesterol, read-out: Tot.-C.

Like-named read-outs stand apart in the source and are kept apart here.

In the case of `CC(C)=CCC/C(C)=C/CC/C(C)=C/CC1=CC(=O)C=CC1=O` [Example 10, 2-(3,7,11-Trimethyl-2(E),6(E),10-Dodecatrienyl)-2,5-Cyclohexadiene-4-Dione], the activity at 10 µM with HepG2 cells turned out to be 95%.
Take `CC(C)=CCC/C(C)=C/CC/C(C)=C/CCC(O)CCC1=CC(=O)C=CC1=O` (stereo not drawn) [Example 11, 2-(3-Hydroxy-7,11,15-Trimethyl-6(E),10(E),14-Hexadecatrienyl)-2,5-Cyclohexadiene-1,4-Dione]: the activity at 10 µM in the data set on HepG2 cells came to 75%. The values for the response vs control in vivo at 4 mg/kg/day in data set [1] (setting [7]), in data set [1] (setting [8]) and in data set [1] (setting [9]) were 96.9%, 80.1% and 87.2%, respectively.
`CC(C)=CCC/C(C)=C/CC/C(C)=C/CCC(O)CCC1=CC(=O)C(C)=C(C)C1=O` (stereo not drawn) [Example 12, 5-(3-Hydroxy-7,11,15-Trimethyl-6(E),10(E),14-Hexadecatrienyl)-2,3-Dimethyl-2,5-Cyclohexadiene-1,4-Dione]: the activity at 10 µM in the data set on HepG2 cells was determined as 3%; at HMG-CoA reductase [2], 74%. Further, the response vs control in vivo at 4 mg/kg/day was determined as 95% in data set [1] (setting [7]), 73% in data set [1] (setting [8]) and 82.7% in data set [1] (setting [9]).
For the compound `CC1=C(C)C(=O)C(CCC(C)(O)CC/C=C(\C)CCc2cccc(C(F)(F)F)c2)=CC1=O` (stereo not drawn) [Example 13, 5-(3,7-Dimethyl-3-Hydroxy-9-[3-(Trifluoromethyl)phenyl]-6(E)-Nonenyl)-2,3-Dimethyl-2,5-cyclohexadiene-1,4-Dione], the response vs control in vivo at 4 mg/kg/day in data set [1] (setting [7]) turned out to be 75.6%; in data set [1] (setting [8]) it was 32%; in data set [1] (setting [9]), 57.7%. The HMGR with HMG-CoA reductase [3] was 59.9 % of Control.
Take `CC(C)=CCC/C(C)=C/CC/C(C)=C/CCC(C)(O)CCC1=CC(=O)c2ccccc2C1=O` (stereo not drawn) [Example 14, 2-(3-Hydroxy-3,7,11,15-Tetramethyl-6(E),10(E),14-Hexadecatrienyl)-1,4-Naphthalene-1,4-dione]: the activity at 10 µM in the data set with HepG2 cells is 10%. Moreover, the response vs control in vivo at 4 mg/kg/day in data set [1] (setting [7]) is 94.7%; in data set [1] (setting [8]), 69.4%; in data set [1] (setting [9]) it was 82.4%.
As for `CC(C)=CCC/C(C)=C/CC/C(C)=C/CCC(C)(O)CCC1=CC(=O)C(C)=C(C)C1=O` (stereo not drawn) [Example 15, 5-(3-Hydroxy-3,7,11,15-Tetramethyl-6(E),10(E),14-Hexadecatrienyl)-2,3-Dimethyl-2,5-cyclohexadiene-1,4-Dione], the activity at 10 µM in the data set with HepG2 cells was 89%; on HMG-CoA reductase [2] it was 79%. Also, the “activity in the cholesterol suppression assay in vitro” value with HepG2 cells (in words) is on record as “very active in the cholesterol suppression assay in vitro”. For the same compound, the “cholesterol/HMGR suppression in vitro, relative to γ-tocotrienol” value in the data set with HepG2 cells (in words, refers to Table I) was “very similar cholesterol/HMGR suppression in vitro and in vivo”. Besides, the response vs control in vivo at 4 mg/kg/day in data set [1] (setting [7]) was 90.5%; in data set [1] (setting [8]), 59%; in data set [1] (setting [9]), 76.7%. In data set [1] (in words), the “activity in the chick model, relative to γ-tocotrienol” value was “comparable activity to γ-tocotrienol in the chick model”. For the same compound, the “cholesterol/HMGR suppression in vivo, relative to γ-tocotrienol” value in data set [1] (in words, refers to Table II) was “very similar cholesterol/HMGR suppression in vitro and in vivo”. Besides, the HMGR in the data set on HMG-CoA reductase [3] was 67.4 % of Control.
On to `CC(C)=CCC/C(C)=C/CC/C(C)=C/CCC(C)(O)CCC1=CC(=O)C=CC1=O` (stereo not drawn) [Example 16, 2-(3-Hydroxy-3,7,11,15-Tetramethyl-6(E),10(E),14-Hexadecatrienyl)-2,5-cyclohexadiene-1,4-Dione Hydrate], for which the activity at 10 µM with HepG2 cells stood at 74%. The response vs control in vivo at 4 mg/kg/day in data set [1] (setting [7]) was 95.8%; in data set [1] (setting [8]) it was 94.9%; in data set [1] (setting [9]), 93.8%.
On to `COC1=C(OC)C(=O)C(CCCCCCCCCCO)=C(C)C1=O` [Idebenone], for which, in data set [4] (in words), the absorption rate entry is listed as “absorbed rapidly” and the intestinal absorption entry was “low intestinal absorption”. Also, in data set [4] (low intestinal absorption), the bioavailability is recorded as 15-30%.
As to `COc1c(O)c(C)c(C/C=C(\C)CC/C=C(\C)CC/C=C(\C)CC/C=C(\C)CC/C=C(\C)CC/C=C(\C)CC/C=C(\C)CC/C=C(\C)CC/C=C(\C)CCC=C(C)C)c(O)c1OC` [Ubiquinol], in data set [5], the lipid peroxidation inhibition result is “inhibits lipid peroxidation”.
Turning to `CC(C)=CCC/C(C)=C/CC/C(C)=C/CC/C(C)=C/CC1=C(C)C(=O)c2ccccc2C1=O` [Vitamin K2, reference compound], the values for the response vs control in vivo at 4 mg/kg/day in data set [1] (setting [7]), in data set [1] (setting [8]) and in data set [1] (setting [9]) were 105%, 146% and 116%, respectively. Further, the “cholesterol levels in vivo” value in data set [1] (in words, Vitamin K2 (n=4), refers to Table II) is recorded as “appears to actually elevate cholesterol levels”.
Regarding `COc1c(O)c(C)c(C/C=C(\C)CC/C=C(\C)CC/C=C(\C)CC/C=C(\C)CC/C=C(\C)CC/C=C(\C)CC/C=C(\C)CC/C=C(\C)CC/C=C(\C)CCC=C(C)C)c(O)c1OC` [ubiquinol-10], in the data set with LDL, the LDL oxidation inhibition entry is on record as “inhibitor of LDL oxidation” and the “LDL oxidation inhibition efficiency relative to tocopherol” value is given as “much more efficient than tocopherol”.
Take `COC1=C(OC)C(=O)C(C/C=C(\C)CC/C=C(\C)CC/C=C(\C)CC/C=C(\C)CC/C=C(\C)CC/C=C(\C)CC/C=C(\C)CC/C=C(\C)CC/C=C(\C)CCC=C(C)C)=C(C)C1=O` [ubiquinone]: the effect on tocopherol entry in data set [6] is listed as “sparing effect on tocopherol”.
Turning to `CC(C)=CCC/C(C)=C/CC/C(C)=C/CC[C@]1(C)CCc2cc(O)c(C)c(C)c2O1` [γ-Tocotrienol, reference compound], the activity at 10 µM with HepG2 cells turned out to be 29%; at HMG-CoA reductase [2], 65%. Also, the values for the response vs control in vivo at 4 mg/kg/day in data set [1] (read-out: HDL-C), in data set [1] (read-out: LDL-C) and in data set [1] (read-out: Tot.-C) were 87%, 54.8% and 76.3%, respectively.
